Measured values published in US20230322785A1, “ADENOSINE A2A AND A2B RECEPTOR DUAL ANTAGONISTS FOR IMMUNO-ONCOLOGY” (Merck Sharp & Dohme LLC, priority 2020, published 2023).

Target: T1, human A2A adenosine receptor (Homo sapiens, UniProt P29274)
T1 construct: expressed in transfected cells; host or cells: HEK293 or CHO cells
Experiment: A2A binding affinity, Method (B): scintillation proximity assay (SPA) with [3H]SCH58261
Details: membranes of HEK293 or CHO cells expressing the human receptor
Description: Method (A) describes the procedure used to measure A2A binding affinity using radioligand binding. Method (B) describes the procedure used to measure A2A binding affinity using SPA technology. The method used to measure A2B binding affinity is also described below. The method used to determine the A2A IC50 value reported for each compound in the table is indicated next to the reported value. The A2B IC50 value measured using the A2B binding affinity assay is shown in the table next to the compound under the corresponding A2A value.
The A2A receptor affinity binding assay measured the amount of binding of a tritiated ligand with high affinity for the A2A adenosine receptor to membranes made from HEK293 or CHO cells recombinantly expressing the human A2A adenosine receptor, in the presence of varying concentrations of a compound of the invention. The data were generated using either filtration binding or a homogenous scintillation proximity assay (SPA).
Method (B): Measurement of A2A Binding Affinity Using SPA
Binding affinity using SPA was conducted as follows. Test compounds (50 nL) were dispensed into individual wells of a 384-well OptiPlate™ well (Perkin Elmer) by Echo® acoustic liquid transfer (Labcyte). 20 µL of 1.25 nM [^3H] SCH58261 ((7-(2-phenylethyl)-5-amino-2-(2-furyl)-pyrazolo-[4,3-e]-1,2,4-triazolo[1,5-c]pyrimidine)) in DPBS assay buffer (Dulbecco’s phosphate buffered saline without calcium and magnesium, ThermoFisher Scientific, Cat. No. A1285601) supplemented with 10 mM MgCl2 was added. A2A receptor-expressing membranes were incubated with 20 µg/mL adenosine deaminase (Roche, Cat. No. 10 102 105 001) for 15 min at room temperature. The receptor-expressing membranes were then combined with wheat germ agglutinin-coated yttrium silicate SPA beads (GE Healthcare, Cat. No. RPNQ0023) in a ratio of […] (w/w) and incubated for 30 min at room temperature. 30 µL of the membrane/bead mixture (0.25 µg and 25 µg per well respectively) were added to the 384-well OptiPlate™ well. To define total and non-specific binding, wells containing 1% DMSO or 1 µM CGS 15943 (Tocris Bioscience, Cat. No. 1699) respectively were also included in the experiment. The plate was incubated for 1 h at room temperature with agitation. The assay plate was then incubated for an h to allow the beads to settle before data were collected using a TopCount® (Perkin Elmer) scintillation counter. After normalization to total and non-specific binding, the percent effect at each compound concentration was calculated. The plot of percent effect versus the log of compound concentration was analyzed electronically using a 4-parameter logistic fit based on the Levenberg-Marquardt algorithm to generate IC50 values.

T1 sequence (P29274 whole entry): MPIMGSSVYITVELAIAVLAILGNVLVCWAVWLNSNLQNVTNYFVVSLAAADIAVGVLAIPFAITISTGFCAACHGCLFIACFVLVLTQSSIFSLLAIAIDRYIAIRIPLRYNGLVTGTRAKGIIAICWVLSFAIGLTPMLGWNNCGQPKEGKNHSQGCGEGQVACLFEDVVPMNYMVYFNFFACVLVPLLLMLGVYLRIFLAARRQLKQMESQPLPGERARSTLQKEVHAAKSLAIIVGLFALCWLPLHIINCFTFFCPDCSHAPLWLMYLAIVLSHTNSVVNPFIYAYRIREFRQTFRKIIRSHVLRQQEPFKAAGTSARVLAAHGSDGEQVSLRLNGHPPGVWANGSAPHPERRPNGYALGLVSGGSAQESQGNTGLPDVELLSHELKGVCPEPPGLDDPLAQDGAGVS

Row | IC50 [nM] | Compound
1 | 44.3 | COc1cccc2c1nc(N)n1nc(CNC(C)c3ncc(-c4ccc(F)cc4)o3)nc21 (single isomer, unassigned) [Example 10.15, (S or R)-2-(((1-(5-(4-fluorophenyl)oxazol-2-yl)ethyl)amino)methyl)-7-methoxy-[1,2,4]triazolo[1,5-c]quinazolin-5-amine]
2 | 13 | CCOC(=O)CN(Cc1nc2c3cccc(OC)c3nc(N)n2n1)CC1CC1 [Entry 17.2]
3 | 3.1 | C=CCN(Cc1ccc(OC(F)(F)F)cc1)Cc1nc2c3cccc(OC)c3nc(N)n2n1 [Entry 21.2]
4 | 5.9 | COc1cccc2c1nc(N)n1nc(CNC(=O)OCc3ccccc3)nc21 [Example 6.1, benzyl ((5-amino-7-methoxy-[1,2,4]triazolo[1,5-c]quinazolin-2-yl)methyl)carbamate]
5 | 8.9 | COc1cccc2c1nc(N)n1nc(CNCc3ccc(C(F)(F)F)cc3)nc21 [Example 7.1, 7-methoxy-2-(((4-(trifluoromethyl)benzyl)amino)methyl)-[1,2,4]triazolo[1,5-c]quinazolin-5-amine]
6 | 7.2 | COc1cccc2c1nc(N)n1nc(CN[C@@H](C)c3ccc(C(F)(F)F)cc3)nc21 [Example 7.2, (S)-7-methoxy-2-(((1-(4-(trifluoromethyl)phenyl)ethyl)amino)methyl)-[1,2,4]triazolo[1,5-c]quinazolin-5-amine]
7 | 18.5 | COc1cccc2c1nc(N)n1nc(CNC(C)(C)c3ccccn3)nc21 [Example 7.3, 7-methoxy-2-(((2-(pyridin-2-yl)propan-2-yl)amino)methyl)-[1,2,4]triazolo[1,5-c]quinazolin-5-amine]
8 | 31.4 | CCN(Cc1ccccn1)Cc1nc2c3cccc(OC)c3nc(N)n2n1 [Example 7.4, 2-((ethyl(pyridin-2-ylmethyl)amino)methyl)-7-methoxy-[1,2,4]triazolo[1,5-c]quinazolin-5-amine]
9 | 20.5 | COc1cccc2c1nc(N)n1nc(CNC(C)(C)c3cccnc3)nc21 [Example 7.5, 7-methoxy-2-(((2-(pyridin-3-yl)propan-2-yl)amino)methyl)-[1,2,4]triazolo[1,5-c]quinazolin-5-amine]
10 | 4.3 | COc1cccc2c1nc(N)n1nc(CNCc3ccc(C(C)(C)C)cc3)nc21 [Example 7.6, 2-(((4-(tert-butyl)benzyl)amino)methyl)-7-methoxy-[1,2,4]triazolo[1,5-c]quinazolin-5-amine]
11 | 2.2 | COCc1ccc(CNCc2nc3c4cccc(OC)c4nc(N)n3n2)cc1 [Example 7.7, 7-methoxy-2-(((4-(methoxymethyl)benzyl)amino)methyl)-[1,2,4]triazol[1,5-c]quinazolin-5-amine]
12 | 12 | COc1cccc2c1nc(N)n1nc(CN[C@H](C)C3CC3)nc21 [Example 7.8, (R)-2-(((1-cyclopropylethyl)amino)methyl)-7-methoxy-[1,2,4]triazolo[1,5-c]quinazolin-5-amine]
13 | 5.4 | COc1cccc2c1nc(N)n1nc(CNCc3ccc(Br)cc3)nc21 [Example 7.9, 2-(((4-bromobenzyl)amino)methyl)-7-methoxy-[1,2,4]triazolo[1,5-c]quinazolin-5-amine]
14 | 22.4 | COc1cccc2c1nc(N)n1nc(CN[C@H](C)c3ccc(C(F)(F)F)cc3)nc21 [Example 8.2, (R)-7-methoxy-2-(((1-(4-(trifluoromethyl)phenyl)ethyl)amino)methyl)-[1,2,4]triazolo[1,5-c]quinazolin-5-amine]
15 | 6.4 | COc1cccc2c1nc(N)n1nc(CN(C)Cc3ccc(C(F)(F)F)cc3)nc21 [Example 8.3, 7-methoxy-2-((methyl(4-(trifluoromethyl)benzyl)amino)methyl)-[1,2,4]triazolo[1,5-c]quinazolin-5-amine]
16 | 3.2 | COc1cccc2c1nc(N)n1nc(CNCc3ccccc3C(F)(F)F)nc21 [Example 8.4, 7-methoxy-2-(((2-(trifluoromethyl)benzyl)amino)methyl)-[1,2,4]triazolo[1,5-c]quinazolin-5-amine]
17 | 11.2 | COc1cccc2c1nc(N)n1nc(CNCc3cccc(C(F)(F)F)c3)nc21 [Example 8.5, 7-methoxy-2-(((3-(trifluoromethyl)benzyl)amino)methyl)-[1,2,4]triazolo[1,5-c]quinazolin-5-amine]
18 | 8.9 | COc1cccc2c1nc(N)n1nc(CNCc3ccc(OC(F)(F)F)cc3)nc21 [Example 8.6, 7-methoxy-2-(((4-(trifluoromethoxy)benzyl)amino)methyl)-[1,2,4]triazolo[1,5-c]quinazolin-5-amine]
19 | 6.4 | COc1cccc2c1nc(N)n1nc(CNCc3ccc(S(F)(F)(F)(F)F)cc3)nc21 [Example 8.7, 7-methoxy-2-(((4-(pentafluoro-λ^6-sulfanyl)benzyl)amino)methyl)-[1,2,4]triazolo[1,5-c]quinazolin-5-amine]
20 | 17.3 | COc1cccc2c1nc(N)n1nc(CNCCc3ccc(C(F)(F)F)cc3)nc21 [Example 8.8]
21 | 2.5 | COc1cccc2c1nc(N)n1nc(CN(Cc3ccc(C(F)(F)F)cc3)C3CC3)nc21 [Example 8.9, 2-((cyclopropyl(4-(trifluoromethyl)benzyl)amino)methyl)-7-methoxy-[1,2,4]triazolo[1,5-c]quinazolin-5-amine]
22 | 40.2 | COc1cccc2c1nc(N)n1nc(CN[C@H](C)[C@@H](O)c3cc(C(F)(F)F)cc(C(F)(F)F)c3)nc21 [Example 10.1, (1S,2R)-2-(((5-amino-7-methoxy-[1,2,4]triazolo[1,5-c]quinazolin-2-yl)methyl)amino)-1-(3,5-bis(trifluoromethyl)phenyl)propan-1-ol]
23 | 110 | Nc1nc2c(F)cc(F)cc2c2nc(CCNCc3ccc(C(F)(F)F)cc3)nn12 [Example 10.2, 7,9-difluoro-2-(2-((4-(trifluoromethyl)benzyl)amino)ethyl)-[1,2,4]triazolo[1,5-c]quinazolin-5-amine]

Continued, compound first:

Row | Compound | IC50 [nM]
24 | COc1cccc2c1nc(N)n1nc(CNC(=O)CCc3ccccc3)nc21 [Example 2.2, N-((5-amino-7-methoxy-[1,2,4]triazolo[1,5-c]quinazolin-2-yl)methyl)-3-phenylpropanamide] | 12.7
25 | COc1cccc2c1nc(N)n1nc(CNC(=O)CCc3ccc(C(F)(F)F)cc3)nc21 [Example 2.3] | 4.5
26 | COc1ccc(CCC(=O)NCc2nc3c4cccc(OC)c4nc(N)n3n2)cc1 [Example 2.4] | 7.5
27 | COc1cccc2c1nc(N)n1nc(CNC(=O)CCc3cccc(C(F)(F)F)c3)nc21 [Example 2.5] | 25.8
28 | COc1cccc2c1nc(N)n1nc(CC(=O)NCc3cccnc3)nc21 [Example 4.3, 2-(5-amino-7-methoxy-[1,2,4]triazolo[1,5-c]quinazolin-2-yl)-N-(pyridin-3-ylmethyl)acetamide] | 44.3
29 | COc1cccc2c1nc(N)n1nc(CC(=O)NCc3ccc(C(F)(F)F)cc3)nc21 [Example 4.4, 2-(5-amino-7-methoxy-[1,2,4]triazolo[1,5-c]quinazolin-2-y1)-N-(4-(trifluoromethyl)benzyl)acetamide] | 9.4
30 | COc1cccc2c1nc(N)n1nc(CC(=O)NCc3ccc(OC(F)(F)F)cc3)nc21 [Example 4.5, 2-(5-amino-7-methoxy-[1,2,4]triazolo[1,5-c]quinazolin-2-yl)-N-(4-(trifluoromethoxy)benzyl)acetamide] | 5.8
31 | COc1cccc2c1nc(N)n1nc(CC(=O)N[C@@H]3CCOc4cc(F)ccc43)nc21 [Example 4.6, (R)-2-(5-amino-7-methoxy-[1,2,4]triazolo[1,5-c]quinazolin-2-yl)-N-(7-fluorochroman-4-yl)acetamide] | 2
32 | COc1cccc2c1nc(N)n1nc(CC(=O)N[C@H]3CCOc4cc(F)ccc43)nc21 [Example 4.7, (S)-2-(5-amino-7-methoxy-[1,2,4]triazolo[1,5-c]quinazolin-2-yl)-N-(7-fluorochroman-4-yl)acetamide] | 6.7
33 | COc1cccc2c1nc(N)n1nc(CC(=O)N[C@H]3CCOc4ccncc43)nc21 [Example 4.8, (S)-2-(5-amino-7-methoxy-[1,2,4]triazolo[1,5-c]quinazolin-2-yl)-N-(3,4-dihydro-2H-pyrano[3,2-c]pyridin-4-yl)acetamide] | 111
34 | CCN(CC)Cc1nc2c3cccc(OC)c3nc(N)n2n1 [Example 5.3, 2-((diethylamino)methyl)-7-methoxy-[1,2,4]triazolo[1,5-c]quinazolin-5-amine] | 24.4
